PubChem BioAssay AID743476 (The Scripps Research Institute Molecular Screening Center, 2014)
Active and inactive are the calls of the source. The rule behind the calls is not given here.

System: CCHF-vOTU
Experiment: PubChem AID 743476
Details: Recombinant CCHFV vOTU, PEP-AMC fluorescence cleavage, with PEP-AMC substrate, hits give high values

SMILES: CC(=O)c1ccc(NC(=S)Nc2cccc3cnccc23)cc1
- inhibition (Assay 1, at 6.84 µM): 0.13% (inactive)
- inhibition (Assay 2, at 6.84 µM): 3.01% (inactive)
- inhibition (Assay 3, at 13.68 µM): 6.6% (inactive)

SMILES: O=C1C=C(Nc2ccccc2)c2ccccc2C1=O
- inhibition (Assay 1, at 6.87 µM): 22.4%
- inhibition (Assay 2, at 6.87 µM): 52.9%

SMILES: COc1cc(NC(=O)COC(=O)c2ccc([N+](=O)[O-])s2)cc(OC)c1OC
- inhibition (Assay 1, at 6.6 µM): 7.4% (inactive)
- inhibition (Assay 2, at 6.6 µM): 4.53% (inactive)
- inhibition (Assay 3, at 13.2 µM): 11.9% (inactive)

SMILES: NS(=O)(=O)c1ccc(NC2=CC(=O)C(=O)c3ccccc32)cc1
- inhibition (Assay 1, at 4.85 µM): 6.01% (inactive)
- inhibition (Assay 2, at 4.85 µM): 30.6%

SMILES: COC(CNC(=O)c1ccc2c3c(onc13)-c1ccccc1C2=O)OC
- inhibition (Assay 1, at 3.49 µM): 16.6% (inactive)
- inhibition (Assay 2, at 3.49 µM): 12.4% (inactive)
- inhibition (Assay 3, at 6.98 µM): 35.5%

SMILES: O=C(COC(=O)c1ccc([N+](=O)[O-])s1)NCc1ccc(F)cc1
- inhibition (Assay 1, at 8.08 µM): -23.4% (inactive)
- inhibition (Assay 2, at 8.08 µM): 7.84% (inactive)
- inhibition (Assay 3, at 2.56 µM): 11.4% (inactive)

SMILES: Cc1ccc(NC2=CC(=O)C(=O)c3ccccc32)cc1
- inhibition (Assay 1, at 7.14 µM): 20%
- inhibition (Assay 2, at 7.14 µM): 51.9%

SMILES: O=C1Cc2ccccc2C(=O)N1Cc1ccccc1
- inhibition (Assay 1, at 1.28 µM): 38.7%
- inhibition (Assay 2, at 1.28 µM): 50.3%

SMILES: COC1=C(N)C(=O)c2nc(C)ccc2C1=O
- inhibition (Assay 1, at 1.37 µM): 16.7% (inactive)
- inhibition (Assay 2, at 1.37 µM): 50.9%

SMILES: CC1COCC(C)N1C1=C(Cl)C(=O)c2ccccc2C1=O (stereo not drawn)
- inhibition (Assay 1, at 5.07 µM): 0.67% (inactive)
- inhibition (Assay 2, at 5.07 µM): 14% (inactive)
- inhibition (Assay 3, at 10.14 µM): 17.6% (inactive)

SMILES: O=C1OC(Nc2cc(Br)cc3cccnc23)c2ccccc21 (stereo not drawn)
- inhibition (Assay 1, at 5.23 µM): 21.7%
- inhibition (Assay 2, at 5.23 µM): 16.9% (inactive)
- inhibition (Assay 3, at 10.46 µM): 10.9% (inactive)

SMILES: Cc1c(Cl)cnc(NC(=O)COC(=O)c2ccc([N+](=O)[O-])s2)c1Cl
- inhibition (Assay 1, at 7.08 µM): 9.06% (inactive)
- inhibition (Assay 2, at 7.08 µM): 5.86% (inactive)
- inhibition (Assay 3, at 14.16 µM): 14.2% (inactive)

SMILES: O=C(O)CSc1cc(NS(=O)(=O)c2ccc(Cl)cc2)c2ccccc2c1O
- inhibition (Assay 1, at 5 µM): 6.76% (inactive)
- inhibition (Assay 2, at 5 µM): 8.14% (inactive)
- inhibition (Assay 3, at 10 µM): 7.8% (inactive)

SMILES: O=C1Cc2ccccc2C(=O)N1CCc1ccccc1
- inhibition (Assay 1, at 1.14 µM): 12.7% (inactive)
- inhibition (Assay 2, at 1.14 µM): 57.5%

SMILES: O=c1[nH]c(Nc2ccccc2)cc2cc(Br)ccc12
- inhibition (Assay 2, at 1 µM): 34.1%
- inhibition (Assay 3, at 2 µM): 42.6%

SMILES: NS(=O)(=O)c1ccc(NC(=O)COC(=O)c2ccc([N+](=O)[O-])s2)cc1
- inhibition (Assay 1, at 8.31 µM): 70.6%
- inhibition (Assay 2, at 8.31 µM): 24.6%
- inhibition (Assay 3, at 16.62 µM): 23.1%

SMILES: O=C(COC(=O)c1ccc([N+](=O)[O-])s1)Nc1ccccc1
- inhibition (Assay 2, at 10.31 µM): 8.51% (inactive)
- inhibition (Assay 3, at 20.62 µM): 4.9% (inactive)

SMILES: COc1cc(C(=O)c2nccc3cc(OC)c(OC)cc23)c([N+](=O)[O-])cc1OC
- inhibition (Assay 1, at 1.05 µM): 6.05% (inactive)
- inhibition (Assay 2, at 1.05 µM): 15% (inactive)
- inhibition (Assay 3, at 2.1 µM): 17.8% (inactive)

SMILES: O=C(COC(=O)c1ccc([N+](=O)[O-])s1)Nc1ccc(F)cc1
- inhibition (Assay 1, at 7.8 µM): 9.26% (inactive)
- inhibition (Assay 2, at 7.8 µM): 9.2% (inactive)
- inhibition (Assay 3, at 15.6 µM): 17.4% (inactive)

SMILES: CC1CCCC(NC(=O)COC(=O)c2ccc([N+](=O)[O-])s2)C1C (stereo not drawn)
- inhibition (Assay 1, at 9.22 µM): 37.2%
- inhibition (Assay 2, at 9.22 µM): 8.38% (inactive)
- inhibition (Assay 3, at 18.44 µM): 13.5% (inactive)

SMILES: O=S(=O)(Nc1cc2nc3ccccc3nc2n1Cc1ccccc1)c1ccc(Cl)cc1
- inhibition (Assay 1, at 2.57 µM): 72.3%
- inhibition (Assay 2, at 2.57 µM): -112% (inactive)
- inhibition (Assay 3, at 5.14 µM): 47.9% (inactive)

SMILES: Cc1ccccc1-c1cc2c(nn1)-c1ccccc1C2=O
- inhibition (Assay 1, at 0.46 µM): 27.6%
- inhibition (Assay 2, at 0.46 µM): 24.5%

SMILES: CCOC(=O)N=Nc1c2ccccc2c2nc3no[nH]c3nc12
- inhibition (Assay 1, at 2.35 µM): 8.81% (inactive)
- inhibition (Assay 2, at 2.35 µM): 13.6% (inactive)
- inhibition (Assay 3, at 4.7 µM): 25.3%

SMILES: CCc1cc[n+](C2=C(NS(=O)(=O)c3cccs3)C(=O)c3ccccc3C2=O)cc1
- inhibition (Assay 1, at 4.39 µM): 13.7% (inactive)
- inhibition (Assay 2, at 4.39 µM): 18.6% (inactive)
- inhibition (Assay 3, at 8.78 µM): 37.9%
